Experimental data reported in patent US9738634B2, “Heterocyclic amide compound and herbicide” (SYNGENTA PARTICIPATIONS AG, priority 2013, dated 2017).

Tests used:
Format in all cases: in vivo
barnyard grass [1] = test: Test Example 1: weedkilling efficacy, preemergent weed treatment in the submerged state; A: barnyard grass
Source text: (§1) Weedkilling efficacy test on preemergent weed treatment in the submerged state
(§2) Alluvial soil was introduced into 1/10,000 Are Wagner pots, and 4 cm depth submerged conditions were created by addition of water and mixing. Seeds of barnyard grass, bulrush and oval-leafed pondweed were mixed and sown into the aforesaid cups, then 2.5 leaf stage rice seedlings were transplanted. On the sowing day, emulsions of compounds of the present invention prepared according to compounding example 2 were diluted with water to give the specified dosages and applied onto the water surface. The plants were grown after placing the cups in a greenhouse at 25 to 30° C. 3 weeks after the pesticide treatment the effect on each type of plant was investigated on the basis of the following assessment criteria.
(§3) A: barnyard grass, B: bulrush, C: oval-leafed pondweed, D: crabgrass, E: green foxtail, F: barnyard grass, G: wild oat, H: black-grass, I: Italian ryegrass, J: common wind-grass, K: Indian mallow, L: redroot pigweed, M: fig-leafed goosefoot, N: chickweed, O: catchweed, p: birds-eye speedwell, a: transplanted rice, b: directly sown rice, c: corn, d: soybean, e: wheat, f: beet, g: rapeseed
(§4) Further, pesticide dosage (g/ha) indicates the concentration regulated such that treatment was with only the stated number of grams (g), when calculated per hectare (ha).

oval-leafed pondweed [2] = test: Test Example 2: weedkilling efficacy, growth period weed treatment in the submerged state; C: oval-leafed pondweed
Experimental: (§5) Weedkilling efficacy test on growth period weed treatment in the submerged state
as §2, with “and the plants were grown by placing in a greenhouse at 25 to 30° C. When the barnyard grass, bulrush and oval-leafed pondweed had reached the 1-2” for “then 2.5”, “stage,” for “stage rice seedlings were transplanted. On the sowing day,”, “surface.” for “surface. The plants were grown after placing the cups in a greenhouse at 25 to 30° C.”, “the” for “the following”, “criteria of test example 1.” for “criteria.”
as §3, §4

barnyard grass [3] = test: Test Example 2: weedkilling efficacy, growth period weed treatment in the submerged state; A: barnyard grass
Experimental: as §5
as §2, with “and the plants were grown by placing in a greenhouse at 25 to 30° C. When the barnyard grass, bulrush and oval-leafed pondweed had reached the 1-2” for “then 2.5”, “stage,” for “stage rice seedlings were transplanted. On the sowing day,”, “surface.” for “surface. The plants were grown after placing the cups in a greenhouse at 25 to 30° C.”, “the” for “the following”, “criteria of test example 1.” for “criteria.”
as §3, §4

transplanted rice = test: Test Example 1: preemergent weed treatment in the submerged state, effect on crop; a: transplanted rice
Source text: as §1, §2, §3, §4

bulrush [4] = test: Test Example 1: weedkilling efficacy, preemergent weed treatment in the submerged state; B: bulrush
Source text: as §1, §2, §3, §4

bulrush [5] = test: Test Example 2: weedkilling efficacy, growth period weed treatment in the submerged state; B: bulrush
Experimental: as §5
as §2, with “and the plants were grown by placing in a greenhouse at 25 to 30° C. When the barnyard grass, bulrush and oval-leafed pondweed had reached the 1-2” for “then 2.5”, “stage,” for “stage rice seedlings were transplanted. On the sowing day,”, “surface.” for “surface. The plants were grown after placing the cups in a greenhouse at 25 to 30° C.”, “the” for “the following”, “criteria of test example 1.” for “criteria.”
as §3, §4

oval-leafed pondweed [6] = test: Test Example 1: weedkilling efficacy, preemergent weed treatment in the submerged state; C: oval-leafed pondweed
Source text: as §1, §2, §3, §4

Compound | A: barnyard grass, weed kill grade (barnyard grass [1]; treatment dosage 320 g/ha) | A (barnyard grass) weedkilling efficacy grade (barnyard grass [3]; treatment dosage 320 g/ha) | a: transplanted rice, effect on crop grade (transplanted rice; treatment dosage 320 g/ha) | B: bulrush, weed kill grade (bulrush [4]; treatment dosage 320 g/ha) | B (bulrush) weedkilling efficacy grade (bulrush [5]; treatment dosage 320 g/ha) | C: oval-leafed pondweed, weed kill grade (oval-leafed pondweed [6]; treatment dosage 320 g/ha) | A: barnyard grass, weed kill grade (barnyard grass [1]; treatment dosage 252 g/ha) | a: transplanted rice, effect on crop grade (transplanted rice; treatment dosage 252 g/ha) | B: bulrush, weed kill grade (bulrush [4]; treatment dosage 252 g/ha) | C: oval-leafed pondweed, weed kill grade (oval-leafed pondweed [6]; treatment dosage 252 g/ha) | also measured
CC(C(=O)Nc1cc(Cl)cc(Cl)n1)N1COCN(c2ccccc2)C1=O (racemic) [A-7-01] | – | – | – | – | – | – | – | – | – | – | A: barnyard grass, weed kill grade (barnyard grass [1]; treatment dosage 1000 g/ha): 5 (weed kill ratio 90% or more, (practically complete withering)); C (oval-leafed pondweed) weedkilling efficacy grade (oval-leafed pondweed [2]; treatment dosage 1000 g/ha): 1 (weed kill ratio 5% or more, less than 20%); A (barnyard grass) weedkilling efficacy grade (barnyard grass [3]; treatment dosage 1000 g/ha): 3 (weed kill ratio 40% or more, less than 70%); a: transplanted rice, effect on crop grade (transplanted rice; treatment dosage 1000 g/ha): 0 (weed kill ratio 5% or less (practically no effect)); B: bulrush, weed kill grade (bulrush [4]; treatment dosage 1000 g/ha): 5 (weed kill ratio 90% or more, (practically complete withering)); B (bulrush) weedkilling efficacy grade (bulrush [5]; treatment dosage 1000 g/ha): 5 (weed kill ratio 90% or more, (practically complete withering)); C: oval-leafed pondweed, weed kill grade (oval-leafed pondweed [6]; treatment dosage 1000 g/ha): 4 (weed kill ratio 70% or more, less than 90%)
Cn1ccc(NC(=O)C(C)(C)N2COCN(c3ccccc3)C2=O)n1 [A-1-03] | 0 (weed kill ratio 5% or less (practically no effect)) | 0 (weed kill ratio 5% or less (practically no effect)) | 0 (weed kill ratio 5% or less (practically no effect)) | 5 (weed kill ratio 90% or more, (practically complete withering)) | 2 (weed kill ratio 20% or more, less than 40%) | 2 (weed kill ratio 20% or more, less than 40%) | – | – | – | – | C (oval-leafed pondweed) weedkilling efficacy grade (oval-leafed pondweed [2]; treatment dosage 320 g/ha): 0 (weed kill ratio 5% or less (practically no effect))
CC(C)(C(=O)Nc1ncc([N+](=O)[O-])s1)N1COCN(c2ccccc2)C1=O [A-1-09] | 5 (weed kill ratio 90% or more, (practically complete withering)) | 4 (weed kill ratio 70% or more, less than 90%) | 0 (weed kill ratio 5% or less (practically no effect)) | 5 (weed kill ratio 90% or more, (practically complete withering)) | 5 (weed kill ratio 90% or more, (practically complete withering)) | 4 (weed kill ratio 70% or more, less than 90%) | – | – | – | – | C (oval-leafed pondweed) weedkilling efficacy grade (oval-leafed pondweed [2]; treatment dosage 320 g/ha): 5 (weed kill ratio 90% or more, (practically complete withering))
CC(C)(C(=O)Nc1nnc(C(F)(F)F)s1)N1COCN(c2ccccc2)C1=O [A-1-14] | 4 (weed kill ratio 70% or more, less than 90%) | 2 (weed kill ratio 20% or more, less than 40%) | 1 (weed kill ratio 5% or more, less than 20%) | 5 (weed kill ratio 90% or more, (practically complete withering)) | 5 (weed kill ratio 90% or more, (practically complete withering)) | 3 (weed kill ratio 40% or more, less than 70%) | – | – | – | – | C (oval-leafed pondweed) weedkilling efficacy grade (oval-leafed pondweed [2]; treatment dosage 320 g/ha): 2 (weed kill ratio 20% or more, less than 40%)
CSc1nc(NC(=O)C(C)(C)N2COCN(c3ccccc3)C2=O)ns1 [A-1-17] | 2 (weed kill ratio 20% or more, less than 40%) | 0 (weed kill ratio 5% or less (practically no effect)) | 0 (weed kill ratio 5% or less (practically no effect)) | 5 (weed kill ratio 90% or more, (practically complete withering)) | 4 (weed kill ratio 70% or more, less than 90%) | 3 (weed kill ratio 40% or more, less than 70%) | – | – | – | – | C (oval-leafed pondweed) weedkilling efficacy grade (oval-leafed pondweed [2]; treatment dosage 320 g/ha): 2 (weed kill ratio 20% or more, less than 40%)
CC(C)(C(=O)Nc1nc(Cl)cc(Cl)n1)N1COCN(c2ccccc2)C1=O [A-1-19] | – | – | – | – | – | – | 2 (weed kill ratio 20% or more, less than 40%) | 0 (weed kill ratio 5% or less (practically no effect)) | 3 (weed kill ratio 40% or more, less than 70%) | 2 (weed kill ratio 20% or more, less than 40%) | C (oval-leafed pondweed) weedkilling efficacy grade (oval-leafed pondweed [2]; treatment dosage 252 g/ha): 2 (weed kill ratio 20% or more, less than 40%); A (barnyard grass) weedkilling efficacy grade (barnyard grass [3]; treatment dosage 252 g/ha): 3 (weed kill ratio 40% or more, less than 70%); B (bulrush) weedkilling efficacy grade (bulrush [5]; treatment dosage 252 g/ha): 2 (weed kill ratio 20% or more, less than 40%)
CC(C)(C(=O)Nc1nc(Cl)ccc1Cl)N1COCN(c2ccccc2)C1=O [A-2-16] | – | – | – | – | – | – | 0 (weed kill ratio 5% or less (practically no effect)) | 0 (weed kill ratio 5% or less (practically no effect)) | 5 (weed kill ratio 90% or more, (practically complete withering)) | 2 (weed kill ratio 20% or more, less than 40%) | –
CC(C)(C(=O)Nc1cc(Cl)cc(Cl)n1)N1COCN(c2ccccc2)C1=O [A-2-17] | – | – | – | – | – | – | 5 (weed kill ratio 90% or more, (practically complete withering)) | 3 (weed kill ratio 40% or more, less than 70%) | 5 (weed kill ratio 90% or more, (practically complete withering)) | 5 (weed kill ratio 90% or more, (practically complete withering)) | C (oval-leafed pondweed) weedkilling efficacy grade (oval-leafed pondweed [2]; treatment dosage 252 g/ha): 5 (weed kill ratio 90% or more, (practically complete withering)); A (barnyard grass) weedkilling efficacy grade (barnyard grass [3]; treatment dosage 252 g/ha): 5 (weed kill ratio 90% or more, (practically complete withering)); B (bulrush) weedkilling efficacy grade (bulrush [5]; treatment dosage 252 g/ha): 5 (weed kill ratio 90% or more, (practically complete withering))
COC(=O)c1ccnc(NC(=O)C(C)(C)N2COCN(c3ccccc3)C2=O)c1 [A-2-47] | 2 (weed kill ratio 20% or more, less than 40%) | – | 0 (weed kill ratio 5% or less (practically no effect)) | 4 (weed kill ratio 70% or more, less than 90%) | – | 0 (weed kill ratio 5% or less (practically no effect)) | – | – | – | – | –
COc1ccnc(NC(=O)C(C)(C)N2COCN(c3ccccc3)C2=O)c1 [A-2-51] | – | – | – | – | – | – | 4 (weed kill ratio 70% or more, less than 90%) | 0 (weed kill ratio 5% or less (practically no effect)) | 5 (weed kill ratio 90% or more, (practically complete withering)) | 2 (weed kill ratio 20% or more, less than 40%) | –
COc1cc(C(F)(F)F)cc(NC(=O)C(C)(C)N2COCN(c3ccccc3)C2=O)n1 [A-2-59] | 5 (weed kill ratio 90% or more, (practically complete withering)) | – | 1 (weed kill ratio 5% or more, less than 20%) | 5 (weed kill ratio 90% or more, (practically complete withering)) | – | 5 (weed kill ratio 90% or more, (practically complete withering)) | – | – | – | – | –
Cc1cnc(Cl)c(NC(=O)C(C)(C)N2COCN(c3ccccc3)C2=O)c1 [A-3-09] | – | – | – | – | – | – | 2 (weed kill ratio 20% or more, less than 40%) | 1 (weed kill ratio 5% or more, less than 20%) | 4 (weed kill ratio 70% or more, less than 90%) | 0 (weed kill ratio 5% or less (practically no effect)) | –
COc1ccc(N2COCN(C(C)(C)C(=O)Nc3cc(C(F)(F)F)ccn3)C2=O)cc1Cl [A-6-05] | 2 (weed kill ratio 20% or more, less than 40%) | – | 0 (weed kill ratio 5% or less (practically no effect)) | 2 (weed kill ratio 20% or more, less than 40%) | – | 2 (weed kill ratio 20% or more, less than 40%) | – | – | – | – | –
Cc1ccc(N2COCN(C(C)(C)C(=O)Nc3cc(C(F)(F)F)ccn3)C2=O)cc1 [A-6-09] | 4 (weed kill ratio 70% or more, less than 90%) | 3 (weed kill ratio 40% or more, less than 70%) | 0 (weed kill ratio 5% or less (practically no effect)) | 5 (weed kill ratio 90% or more, (practically complete withering)) | 3 (weed kill ratio 40% or more, less than 70%) | 4 (weed kill ratio 70% or more, less than 90%) | – | – | – | – | –
CC1=C(c2ccnc(F)c2)C(=O)N(C(C)(C)C(=O)Nc2cccc(Cl)n2)CO1 [B-2-21] | – | – | – | – | – | – | – | – | – | – | A (barnyard grass) weedkilling efficacy grade (barnyard grass [1]; treatment dosage 252 g/ha): 0 (weed kill ratio 5% or less (practically no effect)); a (transplanted rice) effect on crop grade (transplanted rice; treatment dosage 252 g/ha): 0 (weed kill ratio 5% or less (practically no effect)); B (bulrush) weedkilling efficacy grade (bulrush [4]; treatment dosage 252 g/ha): 5 (weed kill ratio 90% or more, (practically complete withering)); C (oval-leafed pondweed) weedkilling efficacy grade (oval-leafed pondweed [6]; treatment dosage 252 g/ha): 3 (weed kill ratio 40% or more, less than 70%)
CC1=C(c2cncnc2)C(=O)N(C(C)(C)C(=O)Nc2cccc(Cl)n2)CO1 [B-2-22] | – | – | – | – | – | – | – | – | – | – | A (barnyard grass) weedkilling efficacy grade (barnyard grass [1]; treatment dosage 1000 g/ha): 3 (weed kill ratio 40% or more, less than 70%); a (transplanted rice) effect on crop grade (transplanted rice; treatment dosage 1000 g/ha): 0 (weed kill ratio 5% or less (practically no effect)); B (bulrush) weedkilling efficacy grade (bulrush [4]; treatment dosage 1000 g/ha): 3 (weed kill ratio 40% or more, less than 70%); C (oval-leafed pondweed) weedkilling efficacy grade (oval-leafed pondweed [6]; treatment dosage 1000 g/ha): 1 (weed kill ratio 5% or more, less than 20%)
